Reference: patent publication US11819533B2, “Compositions and methods for the treatment of fungal infections” (Cidara Therapeutics, Inc., priority 2017, dated 2023)
Starred links: 1 amine or outer side, 2 acyl side, 3 side chain; linkers in the order of their positions; H or OH if unused. Positions of bridges follow the written chain, without caps; N, C: chain ends. Non-standard residues stand in square brackets, D forms with d. Residues, ends and D or L forms follow the SMILES beside them. *: point of attachment. Orn(4R-OH,5R-OCH2CH2NMe3+) = C[N+](C)(C)CCO[C@@H](N[*:3])[C@H](O)C[C@H](N[*:1])C(=O)[*:2]; pTerphenylCO(4''-OnC5H11) = CCCCCOc1ccc(-c2ccc(-c3ccc(C(=O)*)cc3)cc2)cc1; Orn(4R-OH,5R-OH) = O=C([C@H](C[C@@H](O)[C@@H](O)N[*:3])N[*:1])[*:2]; hTyr(3S-OH,4S-OH) = N[C@H](C(=O)O)[C@H](O)[C@@H](O)c1ccc(O)cc1; Pro(3S-OH,4S-Me) = C[C@H]1CN[C@H](C(=O)O)[C@H]1O; Hyp = O=C(O)[C@@H]1C[C@@H](O)CN1

How the values were obtained:
[1] = tested on: Sprague Dawley rats; test: 14-day repeat-dose intravenous infusion toxicity study; assay type: in vivo
Protocol: The primary purpose of this study was to evaluate the toxicity of CD101 when administered intravenously as a 20-minute infusion into the lateral tail vein of Sprague Dawley rats for fourteen consecutive days. A positive control group (Eraxis®) with a similar structure and pharmacodynamic activity was included in the study design.
The test article, CD101 acetate, was a white to off-white powder. The test article was prepared into dosing formulations for intravenous dose administration. One hundred experimentally naïve Sprague Dawley rats (50 males and 50 females), a minimum of 8 weeks old and weighing 255-318 grams (males) and 192-215 (females) at the outset of the study were assigned to treatment groups as shown in Table 7 below:
All animals were dosed on Days 1 through 3 inclusive. As a result of tail vein irritation observed among all study groups, dose administration was suspended on Day 4 to allow the tails to recover. Dosing resumed on Day 5 and continued for a maximum of ten additional days (Days 5 through 14 inclusive). Animals that could no longer be dosed during this time remained on study.
Male and female Sprague Dawley rats were to receive CD101 acetate at doses of 0, 2, 6 and 20 mg/kg/day (Groups 1, 3, 4 and 5, respectively) or Eraxis® (the positive control article, Group 2) at a dose of 40 mg/kg/day, intravenously as a 20 minute infusion into the left or right lateral tail vein for fourteen consecutive days. During the first three treatment days, all animals were dosed with the first vehicle used on this study (1.75% Tween 80/5% Dextrose: Groups 1 and 3-5; 5% Dextrose: Group 2). As a result of the localized tail swelling observed during the first three days of treatment, study Day 4 served as a drug-free day to alleviate tail vein irritation. Dose administration resumed on Day 5 using a new vehicle (5% Mannitol/2.5% Tween 80/0.3% acetic acid: Groups 1 and 3-5; 5% Mannitol/0.3% acetic acid: Group 2) for the remainder of the treatment period (Days 5-14). Those animals that could no longer be dosed because of severe vein irritation were retained on study, untreated, until the end of the study (Day 15).

[2] = tested on: Candida auris; test: Candida auris infection in a murine model of disseminated candidiasis; assay type: in vivo; conditions: immunosuppressed CD-1 mice; for Percent survival at the end of the study: day 14, CD101 20 mg/kg IP, fluconazole 20 mg/kg PO, amphotericin B 0.3 mg/kg IP, doses on day 1 and day 4
Protocol: Female 6-8 week old CD-1 mice were immunosuppressed with cyclophosphamide (200 mg/kg) 3 days prior to infection and 150 mg/kg 1 day post-infection. On the day of infection, mice were inoculated with 3×10^7 C. auris blastospores via the lateral tail vein. Mice were randomized into 5 groups (n=5 for colony forming units (CFU) and n=10 for survival): CD101 20 mg/kg administered by intraperitoneal (IP) injection, fluconazole 20 mg/kg administered per os (PO), amphotericin B 0.3 mg/kg IP, and a vehicle control. Treatments were administered 2 hours post-infection (day 1) and again on day 4 of the study for a total of 2 doses. Mice were monitored daily and a survival curve was generated. CFU groups were sacrificed on day 8 of the study. One kidney was removed from each mouse, homogenized, plated on potato dextrose agar (PDA), and incubated at 35° C. for 2 days to determine CFU. The remaining survival mice were monitored until the end of the study (day 14).

[3] = tested on: C. albicans SC-5314 biofilms; test: Activity against adhesion phase biofilms (prevention), XTT and CSLM; assay type: cell-based, Candida albicans; conditions: for CSLM biofilm architecture, adhesion phase / Metabolic activity (XTT) of adhesion phase biofilms compared to untreated: 24 h exposure, CD101 0.25 and 1 μg/ml, fluconazole 1 and 4 μg/ml; for Thickness of biofilms, adhesion phase: CSLM, untreated control 36 μm
Protocol: (§1) C. albicans SC-5314 was used for the current study.
(§2) In this study, biofilms were grown in vitro using a biofilm model (Chandra et al., Nature Protocols 3:1909, 2008) and the effect of CD101 on adhesion phase biofilms (representing prevention of biofilms) or mature phase biofilms (representing treatment of biofilms) was determined.
(§3) Biofilms were formed on silicone elastomer (SE) discs using a catheter-associated-biofilm model (Chandra et al., Nature Protocols 3:1909, 2008; Chandra et al., J. Bacteriol. 183: 5385, 2001; Chandra et al., J. Dental Research 80: 903, 2001). For evaluation of activity against adhesion phase biofilms (prevention), Candida cells were adhered to catheter discs for 90 min. […] For evaluation of activity against mature phase biofilms (treatment), Candida cells were adhered to catheter discs for 90 min, then transferred to fresh media and incubated for a further 24 h to allow formation of biofilms. […] Discs incubated with fluconazole or media alone were used as controls in all experiments.
(§4) At the end of drug exposure in both adhesion and mature phase biofilms, biofilms were quantified by measuring their metabolic activity using XTT assay (Chandra et al., Nature Protocols 3:1909, 2008; Chandra et al., J. Bacteriol. 183: 5385, 2001; Chandra et al., J. Dental Research 80: 903, 2001). Following incubation with drugs, discs were transferred to fresh plates containing phosphate buffered saline with XTT and menadione, incubated for 3 h at 37° C. and optical density was read at 492 nm. Separate batches of biofilms were stained with fluorescent dyes (FUN1™, CONA) and observed under Confocal Scanning Laser Microscope (CSLM) to evaluate biofilm architecture and thickness (Chandra et al., Nature Protocols 3:1909, 2008; Chandra et al., J. Bacteriol. 183: 5385, 2001).

[4] = tested on: C. albicans SC-5314 biofilms; test: Activity against mature phase biofilms (treatment), XTT and CSLM; assay type: cell-based, Candida albicans; conditions: for CSLM biofilm architecture, mature phase / Metabolic activity (XTT) of mature phase biofilms compared to untreated: 24 h exposure of mature biofilms, CD101 0.25 and 1 μg/ml, fluconazole 1 and 4 μg/ml; for Thickness of biofilms, mature phase: CSLM, untreated control 43 μm
Protocol: as §1, §2, §3, §4

[5] = PBS buffer drop test (Example 3); assay type: physicochemical; conditions: 0.50% Tween 80, 0.76% mannitol, 0.125% sodium lactate in 3.5% dextrose solution, pH ~5.5; 2 mg/mL, 0.47 mg/mL in PBS
Protocol: These solutions were tested for solubility in the PBS drop test, which involved adding the solution dropwise into PBS solution (1:4.3 dilution) and visually observing the resulting solution for any precipitation. PBS buffer serves as a surrogate for plasma, and the PBS drop test is used to evaluate the potential for insolubility as the drug enters the bloodstream at the injection site.

[6] = PBS drop test of CD101 IV formulations (Example 4); assay type: physicochemical; conditions: 6 mg/mL in 1.25% Tween 80, 5% mannitol, 0.3% glacial acetic acid, pH ~4.5; 0.25 mL into 1 mL PBS
Protocol: Solubility of CD101-containing formulations with different percentages of Tween 80 (also referred to as polysorbate 80) was evaluated in a “PBS drop test.” This involved preparing a known concentration of CD101 in a formulation and injecting the formulation into PBS to visually examine for precipitation. This test was used to assess if a CD101-containing formulation would remain soluble in blood during IV infusions.
(1) 1.25% Tween 80, 5% mannitol, 0.3% glacial acetic acid, pH ˜4.5
(2) 0.50% Tween 80, 0.76% mannitol, 0.125% sodium lactate in 3.5% dextrose solution, pH ˜5.5
Different concentrations of CD101 acetate were prepared in vehicles (1) and (2) and tested for solubility in the PBS drop test.
Add dropwise the formulated solution into PBS solution (1:4 dilution). Visually observe the resulting solution upon addition for any precipitation.

[7] = tested on: C. albicans SC-5314 biofilms; test: Time lapse microscopy of biofilm formation; assay type: cell-based, Candida albicans; conditions: followed up to 16 h
Description: The effective CD101 concentration obtained from the above experiments was used to monitor its effect on biofilm formation in real time using TLM, which involves capturing real-time images of a single frame at specific time intervals, allowing temporal monitoring of the interactions occurring between the drug and Candida biofilms. Captured images were combined in a time sequence, resulting in an animation depicting the sequence of events that occurred with the passage of time. Briefly, the discs with C. albicans (adhered for 90 min as above) were placed in a 35-mm-diameter glass-bottom Petri dish (MatTek Corp., Ashland, MA). […] Phase contrast images for this interaction were captured immediately from 0 h and followed up to 16-17 h on a Leica DMI 6000 B inverted microscope connected to a Retiga EXi Aqua camera (Q-imaging Vancouver British Columbia). To determine the structural changes in the maturing biofilm, both acquisition and analysis of a series of horizontal (xy) optical sections of the biofilm was done using Metamorph Imaging software (Molecular Devices, Downington, PA). Disc incubated with media alone was used as control.

Structure (SMILES)	Incidence of tail vein irritation ([1]; Days 1-3, first vehicle (1.75% Tween 80 and 5% Dextrose for CD101 acetate; 5% Dextrose for Eraxis), Eraxis 40 mg/kg/day, CD101 acetate 6 and 20 mg/kg/day, males and females)	Vein irritation compared to Groups 1, 3 and 4 ([1]; Days 5-14, second vehicle (5% Mannitol, 2.5% Tween 80, 0.3% Acetic Acid for CD101 acetate; 5% Mannitol and 0.3% Acetic Acid for Eraxis), Eraxis 40 mg/kg/day, CD101 acetate 20 mg/kg/day)	Animals dosed for less than the intended ten-day duration (Days 5-14) as a result of tail swelling/lesions ([1]; males, 40 mg/kg/day (Group 2), 20-minute IV infusion, second vehicle 5% Mannitol/0.3% acetic acid) [%]	Percent survival at the end of the study [2] [%]	CSLM biofilm architecture, adhesion phase [3]	Metabolic activity (XTT) of adhesion phase biofilms compared to untreated [3]	Thickness of biofilms, adhesion phase [3]	CSLM biofilm architecture, mature phase [4]	Metabolic activity (XTT) of mature phase biofilms compared to untreated [4]	Thickness of biofilms, mature phase [4]	Appearance upon PBS drop test [5]	Time the formulated solution remained soluble in PBS [6]	Average reduction in kidney CFU compared to fluconazole, amphotericin B and vehicle treated groups ([2]; 20 mg/kg IP on day 1 and day 4, kidney on day 8) [log]	Temporal effect on 3 h formed biofilms (time lapse) ([7]; 0.25 μg/ml added after 3 h biofilm formation)	Temporal effect on formation of biofilms (time lapse) ([7]; 0.25 μg/ml added to cells adhered for 90 min)
CCCCCOc1ccc(-c2ccc(-c3ccc(C(=O)N[C@H]4C[C@@H](O)[C@@H](O)NC(=O)[C@@H]5[C@@H](O)[C@@H](C)CN5C(=O)[C@H]([C@@H](C)O)NC(=O)[C@H]([C@H](O)[C@@H](O)c5ccc(O)cc5)NC(=O)[C@@H]5C[C@@H](O)CN5C(=O)[C@H]([C@@H](C)O)NC4=O)cc3)cc2)cc1 [Eraxis®, Anidulafungin, reference compound] ({pTerphenylCO(4''-OnC5H11)}-[Orn(4R-OH,5R-OH)]T[Hyp][hTyr(3S-OH,4S-OH)]T[Pro(3S-OH,4S-Me)]; lactam 1-C)	highest	only marginally higher	30	–	–	–	–	–	–	–	–	–	–	–	–
C[C@@H]1[C@H](O)[C@@H](C)/C=C/C=C/C=C/C=C/C=C/C=C/C=C/[C@H](O[C@@H]2O[C@H](C)[C@@H](O)[C@H](N)[C@@H]2O)C[C@@H]2O[C@](O)(C[C@@H](O)C[C@@H](O)[C@H](O)CC[C@@H](O)C[C@@H](O)CC(=O)O[C@H]1C)C[C@H](O)[C@H]2C(=O)O [amphotericin B, reference compound]	–	–	–	30	–	–	–	–	–	–	–	–	–	–	–
OC(Cn1cncn1)(Cn1cncn1)c1ccc(F)cc1F [fluconazole, reference compound]	–	–	–	0	did not inhibit biofilm formation	did not inhibit biofilm formation	no effect on biofilm thickness	did not affect Candida biofilms	neither concentrations of fluconazole (1 and 4 μg/ml) affected these biofilms	no effect	–	–	–	–	–
CCCCCOc1ccc(-c2ccc(-c3ccc(C(=O)N[C@H]4C[C@@H](O)[C@@H](OCC[N+](C)(C)C)NC(=O)[C@@H]5[C@@H](O)[C@@H](C)CN5C(=O)[C@H]([C@@H](C)O)NC(=O)[C@H]([C@H](O)[C@@H](O)c5ccc(O)cc5)NC(=O)[C@@H]5C[C@@H](O)CN5C(=O)[C@H]([C@@H](C)O)NC4=O)cc3)cc2)cc1 [CD101] ({pTerphenylCO(4''-OnC5H11)}-[Orn(4R-OH,5R-OCH2CH2NMe3+)]T[Hyp][hTyr(3S-OH,4S-OH)]T[Pro(3S-OH,4S-Me)]; lactam 1-C)	–	–	–	80	only remnants of adhered cells, and no biofilm maturation	formed significantly less biofilms	4 μm	eradicated and showed bulged, deformed/broken cells	significantly less metabolic activity	24 μm	Clear	at least 1 hour	3	remained stunted and failed to grow into mature biofilms	only adhered cells with stunted growth, which failed to grow into mature biofilms
